Measurements as given in ChEMBL document CHEMBL1141437, “Lipoperoxidation and cyclooxygenase enzyme inhibitory piperidine alkaloids from Cassia spectabilis green fruits” (J Nat Prod, 2007).

Tests used:
[1] = Inhibition of lipid peroxidation at 100 ppm after 21 mins; format: functional
[2] = DPPH radical scavenging activity assessed as absorption change at 60 ppm by spectrophotometry; format: functional
[3] = Inhibition of AAPH-induced lipid peroxidation; format: functional; conditions: dose or concentration not given here
[4] = biological target: T1, Prostaglandin G/H synthase 1 (Ovis aries) (UniProt P05979); test: Inhibition of ram seminal vesicle COX1 at 100 ppm; format: tissue-based
T1 sequence (whole entry): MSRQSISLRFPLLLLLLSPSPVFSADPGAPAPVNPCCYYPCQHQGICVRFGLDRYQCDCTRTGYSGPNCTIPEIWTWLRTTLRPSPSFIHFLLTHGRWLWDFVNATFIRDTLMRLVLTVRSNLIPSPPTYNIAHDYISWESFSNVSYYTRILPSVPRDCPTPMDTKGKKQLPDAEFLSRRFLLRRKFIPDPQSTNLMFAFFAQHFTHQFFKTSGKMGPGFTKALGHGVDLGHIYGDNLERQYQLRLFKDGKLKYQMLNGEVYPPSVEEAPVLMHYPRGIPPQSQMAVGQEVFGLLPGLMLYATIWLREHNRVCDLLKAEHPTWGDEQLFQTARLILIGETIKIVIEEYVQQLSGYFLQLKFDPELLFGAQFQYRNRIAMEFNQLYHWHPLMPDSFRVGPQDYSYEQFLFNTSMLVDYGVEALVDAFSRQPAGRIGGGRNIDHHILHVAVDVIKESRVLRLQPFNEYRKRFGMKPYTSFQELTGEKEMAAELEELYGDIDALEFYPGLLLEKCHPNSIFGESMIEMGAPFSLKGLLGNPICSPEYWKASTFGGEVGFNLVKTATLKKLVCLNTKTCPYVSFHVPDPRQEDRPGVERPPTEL

inhibition [4]	SMILES	inhibition [1]	deltaA [2]	inhibition [3]
58%	CC(=O)CCCCCCCCCCCC[C@H]1CC[C@@H](OC(C)=O)[C@@H](C)N1	75%	< 10%	50%
	C[C@@H]1O[C@@H](OC[C@H]2O[C@@H](Oc3c(-c4ccc(O)c(O)c4)oc4cc(O)cc(O)c4c3=O)[C@H](O)[C@@H](O)[C@@H]2O)[C@H](O)[C@H](O)[C@H]1O		92%	
40%	CC(=O)CCCCCCCCCCCC[C@H]1CC[C@@H](O)[C@@H](C)N1	75%	< 10%	50%
33%	COc1cc(/C=C/C(=O)O[C@@H]2CC[C@H](CCCCCCCCCCC(C)=O)N[C@@H]2C)ccc1O		40%	50%
